The text below walks through data of PMC11190268, “Enhancing structural diversity through chemical engineering of Ambrosia tenuifolia extract for novel anti-glioblastoma compounds” (Scientific Reports, 2024).

Where two headings read alike, the source gives them in different places.

Type in all cases: cell-based, human
Series [1] relates to T98G cells. Description: MTT cell viability assay in T98G glioblastoma cells. As to conditions: for IC50: Homo sapiens; for IC50 / percentage of cell viability: T98G cells, MTT; for percentage of cell viability: 40 or 80 μM; for anti-glioblastoma activity (in words): T98G cultures. The protocol: (§1) T98G cells were isolated from the brain of a glioblastoma multiforme patient (ATCC, cat. No. CRl-1690, RRUD: CVCL-0556, Manassas, VA, USA). HEK 293 cells are derived from human embryonic kidney cells (ATCC Cat# CRL-1573, RRID: CVCL_0045). Both cell lines were grown in Dulbecco’s modified Eagle’s medium (DMEM, Invitrogen) supplemented with 10% fetal serum bovine serum (FBS) at 37 °C according to reference.
(§2) 3 × 10^3 cells were seeded in a 96-well plate and were allowed to attach overnight at 37 °C. T98G cells were treated in duplicate or triplicate with different concentrations of the crude/chemically modified extract or pure compounds. The stock solutions were dissolved in DMSO at the final concentration of 160 mg/ml and 5 or 80 mM for the crude/chemically modified extracts and pure compounds, respectively. After 24 h, 100 μL of DMEM supplemented with 10% of FBS and 10% of 3-(4,5-dimethylthiazol-2-yl)-2,5-diphenyltetrazolium bromide (MTT) reagent (5 mg/mL; Sigma) were added to each well, and plates were further incubated for 2 h at 37 °C as described in references,[36]. Then, 100 μL of DMSO:isopropanol (1:1, v/v) were added to each well followed by incubation for a few minutes at room temperature protected from light. Absorbance was analyzed at 570 nm with a reference at 650 nm in an Epoch Microplate Spectrophotometer. Cells incubated with an equivalent DMSO concentration were considered 100% of viability. The equation “log(inhibitor) vs response—variable slope (four parameters) of the GraphPad Prism software was used to calculate the IC50 (half maximal inhibitory concentration) value.
To evaluate the standard treatment, T98G cultures were treated with temozolomide (5 to 1400 μM). After 72 h, the MTT assay was used to determined cell viability and the IC50 value was calculated as describe above.
In general terms: Formazan colour is commonly taken as a measure of viable cells.

The test system of a further series is HEK 293 cells. Description: MTT cell viability assay in non-tumor HEK 293 cells. As to conditions: for selectivity index: HEK 293 versus T98G. The protocol: as §1, §2
The subject of series [2] is T98G cells. As to the kind of experiment: Temporal susceptibility: MTT viability of dexamethasone-synchronized T98G cells. As to conditions: for viability at 13.6 µM: Homo sapiens, 24 h, read-out: cell viability. The protocol:
T98G cells were seeded at the density of 3 × 10^3 in a 96-well plate and incubated overnight at 37 °C. Cultured cells were synchronized with dexamethasone (100 nM, 1 h at 37 °C) according to reference and then treated with (3) (13.6 μM) or DMSO at different times post-synchronization for 24 h. After incubation, cell viability was measured by MTT assay as described above. Cells incubated with DMSO were considered as 100% of viability.

[3] abbreviates: pure compounds, 24 h, read-out: IC50.

Consider `C=C1C(=O)O[C@@H]2[C@H]1CC[C@H](C)[C@]1(CCC(=O)O1)[C@@]2(C)O` [PsiA, psilostachyin A], for which the IC50 in the series with T98G cells [1] (setting [3]) amounted to 17.4 µM. The selectivity index result with HEK 293 cells was “Only 3 showed a good selectivity index”.

`C=C1C(=O)OC2C1CCC(C)=C1CCC(=O)OC12C` (stereo not shown) [PsiB, psilostachyin B]: the IC50 with T98G cells [1] (setting [3]) amounted to 13.9 µM.

In the case of `C=C1C(=O)OC2C1CCC(C)C1CCC(=O)OC12C` (stereo not shown) [PsiC, psilostachyin C], the IC50 in the series on T98G cells [1] (setting [3]) was determined as 14.2 µM.

On to `Cn1nnc2c(C(N)=O)ncn2c1=O` [Temozolomide, reference compound], for which the IC50 in the series with T98G cells [1] (standard treatment, 72 h, read-out: IC50) was found to be 844 µM.

On to `CC1=C(/C=C/C(=O)O)[C@]2(C)CC[C@@H](C=C2C(=O)O)C1` [compound 1, (1R,5S)-4-((E)-2-carboxyvinyl)-3,5-dimethylbicyclo[3.2.2]nona-3,6-diene-6-carboxylic acid], for which the “percentage of cell viability” value in the series with T98G cells [1] (24 h) is listed as “higher than 50%”. Further, the “anti-glioblastoma activity (in words)” value in the series on T98G cells [1] was “weak anti-glioblastoma activity”.

For the compound `COC(=O)/C=C/C1=C(C)C[C@@H]2C=C(C(=O)OC)[C@@]1(C)CC2` [compound 2, Methyl (1R,5S)-4-((E)-3-methoxy-3-oxoprop-1-en-1-yl)-3,5-dimethylbicyclo[3.2.2]nona-3,6-diene-6-carboxylate], in the series with T98G cells [1] (24 h), the “percentage of cell viability” value is given as “higher than 50%”. In addition, the “anti-glioblastoma activity (in words)” value in the series on T98G cells [1] was “weak anti-glioblastoma activity”.

Usually viability stands for the share of living cells, or the viability signal relative to a control. With `C=C1C(=O)O[C@H]2C(=C)[C@@]3(CCC(=O)O3)[C@@H](C)CC[C@@H]12` [compound 3, (3aS,6S,7R,8aR)-6-methyl-3,8-dimethyleneoctahydro-5'H-spiro[cyclohepta[b]furan-7,2'-furan]-2,5'(3H)-dione], the viability at 13.6 µM in the series with T98G cells [2] (T98G cells treated at 18 and 24 h post synchronization) was 45 to 50%; in the series on T98G cells [2] (non-synchronized T98G cells), about 75%. Also, the “effect of time post synchronization on cell viability” value with T98G cells [2] (T98G cells, Kruskal Wallis test) is listed as “significant effect of time on cell viability”. Further, the IC50 with T98G cells [1] (setting [3]) was 13.6 µM; in the series with HEK 293 cells (Homo sapiens, HEK293, 24 h, HEK 293 cells, 24 h, MTT), about 39 µM. Besides, the “anti-glioblastoma activity (in words)” value in the series on T98G cells [1] is recorded as “most active derivative of the series”. In the series with HEK 293 cells, the selectivity index entry is “good selectivity index”.

Consider `C=C1C(=O)O[C@H]2C(=C)[C@]3(CCC(=O)O3)[C@@H](C)CC[C@@H]12` [compound 4, (3aS,6S,7S,8aR)-6-methyl-3,8-dimethyleneoctahydro-5'H-spiro[cyclohepta[b]furan-7,2'-furan]-2,5'(3H)-dione], for which the IC50 with T98G cells [1] (24 h, 10 to 160 µg/mL tested, read-out: concentration needed to reduce 50% of cell viability) is over 40 µg/mL. Moreover, the “anti-glioblastoma activity (in words)” value in the series on T98G cells [1] is reported as “less active”.

On to `C=C1C(=O)OC2C(=C)C(CCC(=O)OC)C(C)CCC12` (stereo not shown) [compound 5], for which the “percentage of cell viability” value with T98G cells [1] (24 h) is “higher than 50%”. The “anti-glioblastoma activity (in words)” value with T98G cells [1] is on record as “weak anti-glioblastoma activity”.

Consider “Methyl 3-((3aS,6S,7S,8aR)-6-methyl-3,8-dimethylene-2-oxooctahydro-2H-cyclohepta[b]furan-7-yl)propanoate [compound 11]”, for which, in the series on T98G cells [1] (24 h), the “percentage of cell viability” value is listed as “higher than 50%”. Besides, the “anti-glioblastoma activity (in words)” value in the series with T98G cells [1] is on record as “weak anti-glioblastoma activity”.
